Molecules are shown by their SMILES.

Sequence of glutamate-activated channels of the GRIN1/2A subtype stably transfected in HEK 293 cells (Q12879 whole entry, looked up, other chains not shown): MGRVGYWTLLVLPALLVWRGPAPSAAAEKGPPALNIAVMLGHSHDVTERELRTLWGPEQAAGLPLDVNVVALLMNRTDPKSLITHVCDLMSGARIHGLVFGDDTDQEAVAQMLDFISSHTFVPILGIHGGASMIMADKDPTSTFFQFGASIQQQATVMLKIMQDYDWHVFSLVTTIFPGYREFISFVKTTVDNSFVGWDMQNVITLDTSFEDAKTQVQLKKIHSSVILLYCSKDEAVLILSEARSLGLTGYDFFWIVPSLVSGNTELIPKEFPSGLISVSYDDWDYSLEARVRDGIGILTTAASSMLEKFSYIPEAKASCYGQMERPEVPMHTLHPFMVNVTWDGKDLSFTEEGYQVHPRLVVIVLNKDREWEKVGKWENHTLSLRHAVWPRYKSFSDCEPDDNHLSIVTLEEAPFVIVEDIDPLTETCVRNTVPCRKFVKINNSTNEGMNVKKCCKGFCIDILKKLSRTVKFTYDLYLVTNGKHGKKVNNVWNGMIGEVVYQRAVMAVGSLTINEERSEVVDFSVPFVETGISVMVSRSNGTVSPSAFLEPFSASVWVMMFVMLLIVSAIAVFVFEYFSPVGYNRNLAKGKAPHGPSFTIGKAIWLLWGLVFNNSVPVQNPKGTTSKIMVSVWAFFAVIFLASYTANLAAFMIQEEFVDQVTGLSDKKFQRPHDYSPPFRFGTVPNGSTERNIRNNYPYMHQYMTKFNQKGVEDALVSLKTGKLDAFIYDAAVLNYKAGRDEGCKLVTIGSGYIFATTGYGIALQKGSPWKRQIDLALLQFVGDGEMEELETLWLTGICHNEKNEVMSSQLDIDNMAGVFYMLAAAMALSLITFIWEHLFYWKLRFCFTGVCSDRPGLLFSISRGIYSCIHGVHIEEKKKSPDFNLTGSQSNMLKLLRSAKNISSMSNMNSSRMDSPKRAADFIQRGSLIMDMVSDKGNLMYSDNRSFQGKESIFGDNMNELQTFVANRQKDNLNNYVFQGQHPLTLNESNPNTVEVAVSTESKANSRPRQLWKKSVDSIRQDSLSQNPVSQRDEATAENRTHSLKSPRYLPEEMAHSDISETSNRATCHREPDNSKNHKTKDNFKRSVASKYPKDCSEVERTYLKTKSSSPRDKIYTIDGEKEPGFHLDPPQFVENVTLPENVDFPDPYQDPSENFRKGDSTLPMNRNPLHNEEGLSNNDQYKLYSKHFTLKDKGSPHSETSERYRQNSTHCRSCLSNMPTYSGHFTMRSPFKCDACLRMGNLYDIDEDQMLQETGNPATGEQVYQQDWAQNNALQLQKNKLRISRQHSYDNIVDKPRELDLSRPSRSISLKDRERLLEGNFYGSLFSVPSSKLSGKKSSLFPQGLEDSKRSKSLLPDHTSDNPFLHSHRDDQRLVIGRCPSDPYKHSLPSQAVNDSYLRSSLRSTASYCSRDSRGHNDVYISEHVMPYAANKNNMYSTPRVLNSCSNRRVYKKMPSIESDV

This assay addresses glutamate-activated channels of the GRIN1/2A subtype stably transfected in HEK 293 cells (Homo sapiens (Human), UniProt Q05586+Q12879). As to the kind of experiment: Automated patch-clamp system (QPatch HTX), percent potentiation at 1 μM. Type of assay: cell-based. Conditions: HEK293, 1 μM test compound, 300 μM NMDA with 8 μM glycine, HEK 293 GRIN1/2A, read-out: GluN2A PCA % potentiation at 1 μM. As for the experimental part:
NMDA potentiation in mammalian cells which expressed NMDA receptors was assessed using the automatic patch-clamp system can be used determine the NAM activity of compounds as described below. An whole cell patch-clamp system can be used determine the PAM activity of compounds as described below.
Automated Patch-Clamp System (OPatch HTX):
In this study, HEK 293 cells stably transfected with glutamate-activated channels of the GRIN1/2A subtype will be used together with submaximal NMDA concentrations (300 μM NMDA, co-application with 8 μM Glycine) to investigate the negative allosteric modulation of the test compounds.
In general, cells will be passaged at a confluence of about 80% to […]. For electrophysiological measurements cells will be harvested at a confluence of about 80% to 90% from sterile culture flasks containing culture complete medium. Cells will be transferred as suspension in PBS to the QPatch 16X or QPatch HTX system to the centrifuge/washer directly.
Standard Laboratory Conditions: Cells will be incubated at 37° C. in a humidified atmosphere with 5% CO2 (rel. humidity about 95%).
Culture media: The cells will be continuously maintained in and passaged in sterile culture flasks containing a 1:1 mixture of Dulbecco's modified eagle medium and nutrient mixture F-12 (D-MEM/F-12 1×, liquid, with L-Glutamine) supplemented with 10% fetal bovine serum, 1% Penicillin/Streptomycin solution, and 50 μM AP-5 blocker.
Antibiotics: The complete medium as indicated above is supplemented with 100 μg/mL hygromycin, 15 μg/mL blasticidin and 1 μg/mL puromycin.
Induction of Expression: 2.5 μg/mL tetracycline is added 24 h before start of experiments.
Dose levels are in terms of test compounds, as supplied. Vehicle will be added to achieve a stock concentration of 10 mM (storage at −10° C. to −30° C.). A further stock solutions of 1.0 mM will be prepared in DMSO. Details of stock solution usage (thawing, dose formulations) will be documented in the raw data. The time period of stock solution usage will be detailed in the report.
Test Compound Concentrations
One test concentration of 1.0 μM will be tested.
All test solutions will be prepared by diluting the stock solutions with either Mg-free bath solution only or Mg-free bath solution containing NMDA (300 μM) and glycine (8.0 μM) shortly prior to the electrophysiological experiments and kept at room temperature (19° C. to 30° C.) when in use. 0.1% DMSO will be used as vehicle.
Frequency of preparation: For each test concentration, fresh solutions of test compounds will be prepared every day.
Stability of dose formulation: All preparation times will be documented in the raw data. Any observations regarding instability of test compounds will be mentioned in the raw data.
Storage of dose formulation: On the day of experimentation dose formulations will be maintained at room temperature (19° C. to 30° C.) when in use.
For preparing the experiments and for formation of the giga-ohm-seal, the following standard bath solution will be used:
Sodium Chloride: 137 mM; Potassium Chloride: 4 mM; Calcium Chloride: 1.8 mM; Magnesium Chloride: 1 mM; HEPES: 10 mM; D-Glucose: 10 mM; Cremophor: 0.02%; pH (NaOH): 7.4
The 1× bath solution will be prepared by diluting 10× bath solution without Glucose and 100× Glucose solution with water at least every 7 days. Both stock solutions have been prepared prior to the experimental start of the present study and stored at 1° C. to 9° C. (10× bath solution) or −10° C. to −30° (100× Glucose solution). The batch number(s) of the bath solution(s) used in the experiments will be documented in the raw data. When in use, the 1× bath solution will be kept at room temperature (19° C. to 30° C.). When not in use, the 1× bath solution will be stored at 1° C. to 9° C.
After the giga-seal was formed the following Mg-free bath solution will be used:
Sodium Chloride: 137 mM; Potassium Chloride: 4 mM; Calcium Chloride; 2.8 mM; HEPES: 10 mM; D-Glucose: 10 mM; Cremophor: 0.02%; pH (NaOH): 7.4 […]
Background: In patch-clamp work, channel activity is measured electrically.
With `CC[C@]1(O)CC[C@@]2(C)[C@@H](CC[C@@H]3[C@@H]2CC[C@]2(C)[C@@H]([C@H](C)[C@H](O)CC4CCOCC4)CC[C@@H]32)C1` [Compound 18, (3S,5S,8R,9S,10S,13S,14S,17R)-3-ethyl-17-((2S,3R)-3-hydroxy-4-(tetrahydro-2H-pyran-4-yl)butan-2-yl)-10,13-dimethylhexadecahydro-1H-cyclopenta[a]phenanthren-3-ol], the activation at 1 µM was -10 to 10%.

For the compound `CC[C@]1(O)CC[C@@]2(C)[C@@H](CC[C@@H]3[C@@H]2CC[C@]2(C)[C@@H]([C@H](C)[C@H](O)c4ccccc4)CC[C@@H]32)C1` [Compound 19, (3S,5S,8R,9S,10S,13S,14S,17R)-3-ethyl-17-((1S,2S)-1-hydroxy-1-phenylpropan-2-yl)-10,13-dimethylhexadecahydro-1H-cyclopenta[a]phenanthren-3-ol], the activation at 1 µM is -40 to -10%. In the case of `CC[C@H](O)[C@@H](C)[C@H]1CC[C@H]2[C@@H]3CC[C@H]4C[C@](O)(CC)CC[C@]4(C)[C@H]3CC[C@]12C` [Compound 21, (3S,5S,8R,9S,10S,13S,14S,17R)-3-ethyl-17-((2S,3S)-3-hydroxypentan-2-yl)-10,13-dimethylhexadecahydro-1H-cyclopenta[a]phenanthren-3-ol], the activation at 1 µM was -40 to -10%. The same measure for `C[C@@H]([C@H]1CC[C@H]2[C@@H]3CC[C@H]4C[C@](O)(C(F)(F)F)CC[C@]4(C)[C@H]3CC[C@]12C)[C@@H](C)O` [Compound 22, (3S,5S,8R,9S,10S,13S,14S,17R)-17-((2S,3R)-3-hydroxybutan-2-yl)-10,13-dimethyl-3-(trifluoromethyl)hexadecahydro-1H-cyclopenta[a]phenanthren-3-ol]: -10 to 10%; for `COC[C@]1(O)CC[C@@]2(C)C(=CC[C@H]3[C@@H]4CC[C@H]([C@H](C)[C@H](O)C(F)(F)F)[C@@]4(C)CC[C@@H]32)C1` [Compound 39, (3S,8S,9S,10R,13S,14S,17R)-3-(methoxymethyl)-10,13-dimethyl-17-((2S,3S)-4,4,4-trifluoro-3-hydroxybutan-2-yl)-2,3,4,7,8,9,10,11,12,13,14,15,16,17-tetradecahydro-1H-cyclopenta[a]phenanthren-3-ol]: -40 to -10%. For the compound `CC#CC[C@H](O)[C@@H](C)[C@H]1CC[C@H]2[C@@H]3CC[C@H]4C[C@](O)(CC)CC[C@]4(C)[C@H]3CC[C@]12C` [Compound 41, (3S,5S,8R,9S,10S,13S,14S,17R)-3-ethyl-17-((2S,3S)-3-hydroxyhept-5-yn-2-yl)-10,13-dimethylhexadecahydro-1H-cyclopenta[a]phenanthren-3-ol], the activation at 1 µM was -40 to -10%.

Regarding `CC[C@]1(O)CC[C@@]2(C)[C@H](CC[C@@H]3[C@@H]2CC[C@]2(C)[C@@H]([C@H](C)[C@@H](O)C(F)(F)F)CC[C@@H]32)C1` [Compound 43, (3S,5R,8R,9S,10S,13S,14S,17R)-3-ethyl-10,13-dimethyl-17-((2S,3R)-4,4,4-trifluoro-3-hydroxybutan-2-yl)hexadecahydro-1H-cyclopenta[a]phenanthren-3-ol], the activation at 1 µM is under -40%. The same measure for `COC[C@]1(O)CC[C@H]2[C@H](CC[C@@H]3[C@@H]2CC[C@]2(C)[C@@H]([C@H](C)[C@@H](O)C(F)(F)F)CC[C@@H]32)C1` [Compound 45, (3S,5R,8R,9R,10S,13S,14S,17R)-3-(methoxymethyl)-13-methyl-17-((2S,3R)-4,4,4-trifluoro-3-hydroxybutan-2-yl)hexadecahydro-1H-cyclopenta[a]phenanthren-3-ol]: -40 to -10%. As for `COC[C@]1(O)CC[C@H]2[C@H](CC[C@@H]3[C@@H]2CC[C@]2(C)[C@@H]([C@H](C)[C@H](O)C(F)(F)F)CC[C@@H]32)C1` [Compound 48, (3S,5R,8R,9R,10S,13S,14S,17R)-3-(methoxymethyl)-13-methyl-17-((2S,3S)-4,4,4-trifluoro-3-hydroxybutan-2-yl)hexadecahydro-1H-cyclopenta[a]phenanthren-3-ol], the activation at 1 µM is -40 to -10%.

As for `CC[C@]1(O)CC[C@@]2(C)[C@@H](CC[C@@H]3[C@@H]2CC[C@]2(C)[C@@H]([C@H](C)[C@H](C)O)CC[C@@H]32)C1` [Compound 50, (3S,5S,8R,9S,10S,13S,14S,17R)-3-ethyl-17-((2S,3S)-3-hydroxybutan-2-yl)-10,13-dimethylhexadecahydro-1H-cyclopenta[a]phenanthren-3-ol], the activation at 1 µM is -40 to -10%. Under `C[C@H]([C@@H](O)C(F)(F)F)[C@H]1CC[C@H]2[C@@H]3CC=C4C[C@](O)(C(F)(F)F)CC[C@]4(C)[C@H]3CC[C@]12C` [Compound 53, (3S,8S,9S,10R,13S,14S,17R)-10,13-dimethyl-17-((2S,3R)-4,4,4-trifluoro-3-hydroxybutan-2-yl)-3-(trifluoromethyl)-2,3,4,7,8,9,10,11,12,13,14,15,16,17-tetradecahydro-1H-cyclopenta[a]phenanthren-3-ol] stands -40 to -10%; under `CC[C@]1(O)CC[C@@]2(C)[C@@H](CC[C@@H]3[C@@H]2CC[C@]2(C)[C@@H]([C@H](C)[C@@H](O)c4ccccc4)CC[C@@H]32)C1` [Compound 55, (3S,5S,8R,9S,10S,13S,14S,17R)-3-ethyl-17-((1R,2S)-1-hydroxy-1-phenylpropan-2-yl)-10,13-dimethylhexadecahydro-1H-cyclopenta[a]phenanthren-3-ol], -40 to -10%; under `CC[C@]1(O)CC[C@@]2(C)[C@H](CC[C@@H]3[C@@H]2CC[C@]2(C)[C@@H]([C@H](C)[C@H](O)C(F)(F)F)CC[C@@H]32)C1` [Compound 56, (3S,5R,8R,9S,10S,13S,14S,17R)-3-ethyl-10,13-dimethyl-17-((2S,3S)-4,4,4-trifluoro-3-hydroxybutan-2-yl)hexadecahydro-1H-cyclopenta[a]phenanthren-3-ol], under -40%.

Take `C[C@H]([C@@H](O)C(F)(F)F)[C@H]1CC[C@H]2[C@@H]3CC[C@@H]4C[C@@](C)(O)CC[C@]4(C)[C@H]3CC[C@]12C` [Compound 57, (3S,5R,8R,9S,10S,13S,14S,17R)-3,10,13-trimethyl-17-((2S,3R)-4,4,4-trifluoro-3-hydroxybutan-2-yl)hexadecahydro-1H-cyclopenta[a]phenanthren-3-ol]: the activation at 1 µM was under -40%. Under `CC[C@]1(O)CC[C@@]2(C)[C@@H](CC[C@@H]3[C@@H]2CC[C@]2(C)[C@@H]([C@H](C)[C@H](O)C4CCCC4)CC[C@@H]32)C1` [Compound 58, (3S,5S,8R,9S,10S,13S,14S,17R)-17-((1R,2S)-1-cyclopentyl-1-hydroxypropan-2-yl)-3-ethyl-10,13-dimethylhexadecahydro-1H-cyclopenta[a]phenanthren-3-ol] stands -40 to -10%; under `CC[C@]1(O)CC[C@@]2(C)C(=CC[C@H]3[C@@H]4CC[C@H]([C@H](C)[C@@H](O)C(F)(F)F)[C@@]4(C)CC[C@@H]32)C1` [Compound 62, (3S,8S,9S,10R,13S,14S,17R)-3-ethyl-10,13-dimethyl-17-((2S,3R)-4,4,4-trifluoro-3-hydroxybutan-2-yl)-2,3,4,7,8,9,10,11,12,13,14,15,16,17-tetradecahydro-1H-cyclopenta[a]phenanthren-3-ol], -40 to -10%.

Values taken from patent publication US11613556B2, “Oxysterols and methods of use thereof” (Sage Therapeutics, Inc., priority 2016, dated 2023).
